Legend:
Format in all cases: cell-based
NGF, BDNF, and NT-4 = assay: Expression of neurotrophic growth factors in Schwann cells, Western blot; conditions: Schwann cell protein extracts; FIG. 6
Source text: HGF/SF- and HGF/SF mimetic-activated Schwann cells show increased expression of neurotrophic growth factors.

[1] = tested on: fibroblasts lacking the Met receptor; assay: Mitogenesis in fibroblasts lacking the Met receptor
Description: To determine whether mimetic-mediated Met phosphorylation induces similar intracellular signaling cascades as HGF/SF, and to assess whether these signaling events convey biologic activity, experiments were carried out using an Akt inhibitor and the phosphoinositide3-kinase inhibitor Wortmannin.

oligodendrocytes = assay: Myelin production by fluoromyelin staining, oligodendrocytes; conditions: HGF/SF 50 ng/ml, mimetic 5 μM, 4 hours
Schwann cells [2] = assay: Myelin production by fluoromyelin staining, Schwann cells; conditions: 4 hours
Description: HGF/SF and small molecule HGF/SF mimetic increase myelin production in Schwann cells. It is well-known that the primary function of oligodendrocytes and Schwann cells is myelin production. […] Cells were seeded in 3 well chamber slides at a density of 50,000 cells/well in serum free media for 24 hours. Then HGF/SF (50 ng/ml) or a small molecule HGF/SF mimetic (5 μM) were added to the same medium and cells incubated for an additional 4 hours. Cells were washed, and fluoromyelin (Molecular Probes) was added to each well (30 min exposure at room temperature), and cells observed under a confocal microscope (Olympus). […] To obtain semi-quantitative measurements of this increase in the fluoromyelin signal, a second experiment was performed. Schwann cells were seeded in 6 well plates at a density of 4×10^5 cells/well and treated with HGF (50 ng/ml) or mimetic (5 uM) for 4 hours. Fluoromyelin staining was performed as described above and relative fluorescence was measured using a fluorescence plate reader.

Schwann cells [3] = assay: Schwann cell migration, Migration Chamber; conditions: 22 hours, quantified with Calcein; FIG. 7
Description: HGF/SF mimetic recapitulates HGF/SF activity in Schwann cells. To compare the direct effects of HGF/SF mimetic and HGF/SF on cell migration, an in vitro migration assay was employed using a Migration Chamber (BD Biosciences). 50,000 cells were seeded in the inner chamber for 22 hours in the presence of 0.4% or 10% FBS, HGF/SF, or mimetic. Cell number was quantified with […] Calcein using a fluorescence plate reader.

Schwann cells [4] = assay: H2O2-induced apoptosis of Schwann cells (Apo-ONE Assay kit); conditions: 0.5 mM H2O2 for 2 hours; HGF 50 ng/ml, mimetic 10 micromolar; FIG. 1
Description: HGF and small molecule HGF/SF mimetic protect Schwann cells against H2O2-induced apoptosis. Schwann cells were seeded in 96 well plates at a density of 5000 cells/well, overnight in serum-free media. Cells were treated with 0.5 mM H2O2 for 2 hours in the presence of vehicle (Veh), HGF (50 ng/ml) or HGF/SF mimetic (10 micromolar). Cells were assayed for apoptosis using the Apo-ONE Assay kit (Promega).

Human neurons = assay: Neuronal axon growth and cell density in human neurons; conditions: 48 hours, FIG. 5
Description: In this experiment, the ability of HGF/SF and mimetic to activate axonal growth was assessed. Human neurons (ATCC) were seeded in 6-well plates (1000 cell/well) in media containing 1% FBS. Cells were treated with HGF/SF (50 ng/ml) or mimetic (5 micromolar) for 48 hours. […] Cell shape, size, and density are clearly different in the presence of HGF/SF and mimetic compared with control. […] In one experiment, neurons were incubated with conditioned media from Schwann cells (FIG. 5, right field). […] Thus, secreted growth factors present in Schwann cell media are ineffective (or are at least effects are below the level of detection) as cell mitogens.

smooth muscle cells = assay: Mitogenesis in smooth muscle cells lacking the Met receptor
[5] = tested on: mouse primary oligodendrocytes; assay: Oligodendrocyte proliferation, WST1 reagent; conditions: treated 16-24 hours, serum-free; FIGS. 3C and 3D
Source text: (§1) Small molecule HGF/SF agonist mimics HGF/SF's pro-proliferative effects. Oligodendrocytes and Schwann cells are both cells that support neuronal function by ensheathing neuronal axons with myelin. An individual supporting cell comprises a single segment of an axon's myelin sheath and is active in facilitating axonal growth. An important aspect of HGF/SF activity is this growth factor's ability to induce oligodendrocyte and Schwann cell proliferation. In order to evaluate small molecule HGF/SF mimetics for potential HGF/SF-like bioactivity, rat RSC96 Schwann cells (ATCC, Manassas, Va.) or mouse primary oligodendrocytes (Celprogen, San Pedro, Calif.) were seeded in 96-well plates at 5000 cells/well in serum-free medium for 16 hours. Cells were treated with test compound or HGF/SF (positive control) for 16-24 hours. [^3H]-thymidine was added to the medium with Schwann cells, WST1 cell proliferation reagent (Roche, Indianapolis, Ind.) was added to oligodendrocytes, and incubation was continued for another 4-5 hours. Schwann cells were washed with PBS and harvested. [^3H]-thymidine incorporation was determined and used as a measure of proliferation (increased DNA synthesis). Cells with WST1 reagent were read using a plate reader at an OD of 490 nm.

rat RSC96 Schwann cells = assay: Schwann cell proliferation, [3H]-thymidine incorporation; conditions: treated 16-24 hours, serum-free; FIGS. 3A and 3B
Source text: as §1

HGF/SF: Scatter factor / hepatocyte growth factor, pleiotropic growth factor, heparin binding heterodimeric protein signalling through Met
expression of NGF, BDNF, and NT-4 cytokines (NGF, BDNF, and NT-4): over-express
mitogenesis in fibroblasts lacking the Met receptor [1]: neither the mimetic nor HGF/SF activated mitogenesis
myelin production in oligodendrocytes (oligodendrocytes): induce myelin production
increase in the fluoromyelin signal, relative fluorescence by plate reader (Schwann cells [2]; HGF 50 ng/ml, mimetic 5 uM, FIG. 2B): 3 fold
fluoromyelin signal, confocal microscope (Schwann cells [2]; HGF/SF 50 ng/ml, mimetic 5 μM, FIG. 2A): intense increase
Schwann cell migration (Schwann cells [3]): similarly increase Schwann cell migration
cell viability after H2O2 (Schwann cells [4]): substantial improvement in cell viability
neuronal cell proliferation / cell density (Human neurons): activate neuronal cell proliferation
neuronal axon growth (Human neurons; HGF/SF 50 ng/ml, mimetic 5 micromolar, 1% FBS): activate neuronal axon growth
mitogenesis in smooth muscle cells, which also lack the Met receptor (smooth muscle cells): A similar result was obtained
oligodendrocyte proliferation (WST1, OD 490 nm) [5]: activate
Schwann cell proliferation ([3H]-thymidine incorporation) (rat RSC96 Schwann cells): activate

From patent publication US20110230407A1, “HEPATOCYTE GROWTH FACTOR PATHWAY ACTIVATORS IN DEMYELINATING DISEASES AND CENTRAL NERVOUS SYSTEM TRAUMA” (priority 2005, published 2011)
